Results published in patent US20120244079A1, “TRACEABLE RETINOID ACID FOR IMAGING, DISEASE PREVENTION AND THERAPY” (BAYLOR COLLEGE OF MEDICINE, priority 2009, published 2012).
“Also recorded” adds a separate entry of the source. Blank lines part the entries; values can stand above or below the compound they belong to.

Experiments:
[1] = system: human colon cancer (HT-29) cells; assay: Confocal microscopy cell binding/uptake; type: cell-based; details: 100 μm, 60 minutes at 37° C.
Procedure: (§1) The human colon (HT-29), nasal (CCL-30) and lung (A549) cancer cell lines were purchased from the American Type Culture Collection (ATCC, Manassas, Va.). Human osteosarcoma (F5M2, OS-9901, SOSP-S607, F4, CM319) and nasopharyngeal carcinoma cell lines (CNE-2) were generated in-house. The cells were cultured in Dulbecco's Modified Eagle Medium supplemented with high glucose and F12 nutrient (DMEM/F12, Invitrogen, Carlsbad, Calif.) with 10% fetal bovine serum (Hyclone, Logan, Utah) in a humidified incubator maintained at 37° C. with 5% CO2.
(§2) Cells were harvested, and the NIR-labeled retinoid agent or the free dye (100 μm) was added. The mixture was incubated for 60 minutes at 37° C. Cells were washed in PBS. Sytox Green in 95% ethanol was added, and cells were incubated for 15 minutes at 4° C. to fix them and stain their nuclei. Stained cells were then transferred to a slide and mounted for microscopic examination. Images were recorded by an Olympus confocal microscope. The microscope was equipped with an excitation (Ex) light source and emission (Em) filters to detect and separate the labeled retinoids (ex/em 785/810 nm) and cell nuclei (Ex/Em 488/510 nm) signals. Confocal image signals were recorded from one slice of a cell z-stack. Sytox green and NIR-labeled retinoid or NIR dye signals were pseudo-colored green (emission at 510 nm) and red (emission at 810 nm), respectively.
(§3) The uptake of NIR-labeled retinoid agent by human cancer cells was verified by confocal microscopy (FIG. 1A to 1H). […] The nuclear internalization was temperature-dependent (FIG. 1J and FIG. 1K). The signal intensity was stronger in cells incubated at 37° C. (FIG. 1I) than in those incubated at 4° C. (FIG. 1L) or the negative cells incubated at 37° C. (FIG. 1M, FIG. 1N, and FIG. 1O). These differences are statistically significant (FIG. 1P).

[2] = system: human lung cancer (A549) cells; assay: Confocal microscopy cell binding/uptake; type: cell-based; details: 100 μm, 60 minutes at 37° C.
Procedure: as §1, §2, §3

[3] = system: human nasopharyngeal cancer (CNE-2) cells; assay: Confocal microscopy cell binding/uptake; type: cell-based; details: 100 μm, 60 minutes at 37° C.
Procedure: as §1, §2, §3

[4] = system: human osteosarcoma F4 cells; assay: Confocal microscopy cell binding/uptake; type: cell-based; details: 100 μm, 60 minutes at 37° C.
Procedure: as §1, §2, §3

[5] = system: human osteosarcoma F5M2 cells; assay: Confocal microscopy cell binding/uptake; type: cell-based; details: 100 μm, 60 minutes at 37° C.
Procedure: as §1, §2, §3

[6] = system: human osteosarcoma OS-9901 cells; assay: Confocal microscopy cell binding/uptake; type: cell-based; details: 100 μm, 60 minutes at 37° C.
Procedure: as §1, §2, §3

[7] = system: human osteosarcoma SOSP-9607 cells; assay: Confocal microscopy cell binding/uptake; type: cell-based; details: 100 μm, 60 minutes at 37° C.
Procedure: as §1, §2, §3

[8] = system: F4 osteosarcoma tumor xenograft; assay: In vivo NIR imaging, side-by-side with free dye; set-up: species or system athymic nude mice; details: for clearance from the body, time: following the injection
Procedure: (§4) Four- to six-week-old male athymic nude mice (18-22 g) were housed and fed sterilized pellet chow and provided sterilized water. Animals were maintained in a pathogen-free mouse colony. The facility is accredited by the American Association for Laboratory Animal Care, and all experiments were performed in accordance with the guidelines of the Institutional Animal Care and Use Committee. Tumor cells were harvested near confluence by incubating them with 0.05% trypsin-EDTA. Cells were pelleted by centrifugation at 130×g for five minutes and resuspended in sterile phosphate-buffered saline (PBS). Tumors were induced in animals by subcutaneous injection of approximately one million tumor cells into the hind leg region of the mice. A total of 75 mice were used in this study.
(§5) The NIR-labeled retinoid agent was intraveneously (i.v.) injected into the tumor-bearing mice at a dose of 10 nmol for imaging. The animals were imaged from 1 to 9 days after the injection using an In-Vivo Multispectral System FX, a tandem (SPECT/CT) single photon emission computed tomography (SPECT) and computed tomography (CT) system and imaged with a positron emission tomography (PET) system.
Regions of interest were quantified from the in vitro and in vivo data using ImageJ (National Institutes of Health, USA). Data were analyzed using one-way (analysis of variance) ANOVA or general linear model (GLM). Data comparisons were illustrated in notched box-and-whisker plots. These plots provide the minimum, 25th percentile, median (central line), mean (+), 75th percentile and maximum.
The tumor mass was located in the left hind region of the mouse (FIG. 2A). There was no calcification of the tumor mass (FIG. 2B). […] To eliminate the potential well-established enhanced permeability and retention (EPR) effect of the imaging results, a side-by-side imaging comparison was performed to study and to directly compare the free dye (FIG. 2E to FIG. 2I) and compound 3 (FIG. 2J to FIG. 2M). The same intensity scale was used in this analysis. […] Finally, the merged free dye, RGD and CT images show the only high vasculature signal in the vicinity of the tumor (FIG. 2I). In contrast, the merged compound 3, RGD and CT images show both vasculature and RA (compound 3) signal intensity increases in the tumor region (FIG. 2N, yellow). All of the data were further analyzed at the animal population level.

CM319 osteosarcoma cells = assay: Confocal microscopy cell binding/uptake; type: cell-based, human
Procedure: as §1, §2

human cancer cells = assay: Confocal microscopy: effect of temperature and signal localisation; type: cell-based
Procedure: as §2, §3
The negative cells also show the minimum signal intensity (FIG. 1M and FIG. 1N).

[9] = system: human colon, lung, nasal cancer, and neuroblastoma xenografts; assay: In vivo NIR imaging of other xenografts; set-up: species or system athymic nude mice; details: across all four tumor xenografts
Procedure: as §4, §5
To confirm the findings in other cancer cell types, the RA agent was tested in human colon (FIG. 4A), lung (FIG. 4B), nasal (FIG. 4C) cancer, and neuroblastoma (FIG. 4 D) xenografts. […]

[10] = system: human colon cancer xenograft; assay: Tumor-to-muscle and liver-to-tumor ratios over time; type: in vivo, athymic nude mice; details: for signal in the liver versus background/muscle level: 14 days post-injection, single 18.4 μg injection
Procedure: as §4
as §5, with “The animals were imaged from 1 to 9 days after the injection using an In-Vivo Multispectral” left out
[…] […] The imaging agent was initially concentrated in the liver after the injection, but it gradually redistributed from the liver to the tumor over time. […] The maximum TMR (2.7) was reached 6 days post-injection in some animals, after which it started to decrease.

tumor xenograft = assay: Dose acceleration response (tumor-to-muscle ratio); type: in vivo, mice; details: injection dose increased from 0.03 to 0.125 mg, p>0.5270
Procedure: (§6) Tumor-bearing mice were divided into three groups for the dose acceleration study; they were injected with 0.03 mg, 0.06 mg, or 0.125 mg of the NIR-labeled retinoid agent that was equivalent to the non-labeled retinoid, respectively. The tumor-to-muscle ratio was calculated from the imaging data. The systemic toxicity was measured using control mice. The mice were treated with PBS (control), a low dose (0.1 mg/kg/week), or a dosage that was five times lower than that reported in published human clinical trials (0.6 mg/kg/week). The bodyweight was measured every other day, and the percentage gain in bodyweight was used as the toxicity indicator.
(§7) To test for a saturation effect of the target-specific biological agent, three groups of animal were injected with different doses of the retinoid agent. The tumor-to-muscle ratio was used to compare the dose response in the tumor. […] However, the higher dose was associated with a significant decrease in the gain of bodyweight (FIG. 7B).

[11] = Systemic toxicity by bodyweight gain; type: in vivo, mice
Procedure: as §6, §7

[12] = 30 mg/day, stage I and II head and neck cancer patients; cited from earlier work

optical signal in the animal ([8]; after 24 hours): completely undetectable
clearance from the body, time [8]: 24 h
clearance from the body, time ([8]; listed as free dye): ≤ 24 h
SMILES: CC1(C)C(=CC=C2CCCC(C=CC3=[N+](CCCCCC(=O)[O-])c4ccc(S(=O)(=O)[O-])cc4C3(C)C)=C2Oc2ccc(S(=O)(=O)[O-])cc2)N(CCCCS(=O)(=O)[O-])c2ccc(S(=O)(=O)[O-])cc21.[Na+].[Na+].[Na+].[Na+] [IRDye800CW, reference compound]
binding to cells (NIR signal, confocal image) [1]: no detectable signal
binding to cells (NIR signal, confocal image) [2]: no detectable signal
binding to cells (NIR signal, confocal image) [3]: no detectable signal
binding to cells (NIR signal, confocal image) [4]: no detectable signal
binding to cells (NIR signal, confocal image) [5]: no detectable signal
binding to cells (NIR signal, confocal image) [6]: no detectable signal
binding to cells (NIR signal, confocal image) [7]: no detectable signal
signal intensity (TBR), IRDye800CW group vs RA group ([8]; after 24 hours, P<0.0001): significantly lower

signal intensity in the liver and tumor ([8]; 72 hours post-injection): high signal intensity
liver-to-tumor ratio relative to tumor-to-muscle ratio ([10]; 1 day post-injection): almost twice as high
signal in the liver versus background/muscle level ([10]; listed as NIR-labeled retinoid agent): still higher than the background level
signal in the liver versus background/muscle level ([10]; listed as retinoid analog imaging agent): had not returned to the muscle level
time at which liver-to-tumor and tumor-to-muscle ratios intersected ([10]; post-injection): 3 days
SMILES: CC1=C(/C=C/C(C)=C/C=C/C(C)=C/C(=O)NCCCCCCNC(=O)CCCCCN2/C(=C/C=C3\CCCC(/C=C/C4=[N+](CCCCS(=O)(=O)O)c5ccc(S(=O)(=O)O)cc5C4(C)C)=C3Oc3ccc(S(=O)(=O)O)cc3)C(C)(C)c3cc(S(=O)(=O)O)ccc32)C(C)(C)CCC1 [compound 3, RA-HN(CH2)6NH—IRdye 800]
binding to cells (NIR signal, confocal image) [1]: bound
binding to cells (NIR signal, confocal image) [2]: bound
binding to cells (NIR signal, confocal image) [3]: bound
binding to cells (NIR signal, confocal image) [4]: bound
binding to cells (NIR signal, confocal image) [5]: bound
binding to cells (NIR signal, confocal image) [6]: bound
binding to cells (NIR signal, confocal image) [7]: bound
binding to cells (CM319 osteosarcoma cells): strongly binds to all the tested human cancer cell lines except CM319 osteosarcoma cells
binding when incubated at 4° C. (human cancer cells; 4° C.): minimum binding
signal intensity in cells incubated at 37° C. versus 4° C. or negative cells (human cancer cells; 37° C. vs 4° C., statistically significant, listed as NIR-labeled retinoid agent): stronger; also recorded: higher signal intensity was observed at 37 °C than at 4 °C
localisation of retinoid signal in cells (human cancer cells; 37° C., confocal, listed as NIR-labeled retinoid agent): not only detected in the cytoplasm but also in the nuclei; also recorded: localizes to the cell membrane and cytoplasm
tumor-to-background ratio (TBR) ([8]; 72 hours post-injection, single animal): 2.76
signal intensity (TBR), IRDye800CW group vs RA group ([8]; within the first 24 hours, P=0.6088): no statistically significant difference
tumor-to-background ratio [9]: 2.15 to 2.74
maximum tumor-to-muscle ratio (TMR) ([10]; single injection 18.4 μg per 25 grams of bodyweight, some animals): 2.7
tumor-to-muscle ratio, dose response (tumor xenograft; listed as imaging agent): no statistically significant difference
tumor-to-muscle ratio, dose response (tumor xenograft; listed as retinoid agent): no significant difference
percentage of bodyweight gain vs untreated control and low dose group ([11]; high dose 0.6 mg/kg/week, p=0.0003 vs control, p=0.0001 vs low dose): significantly lower
percentage of bodyweight gain vs control group ([11]; low dose 0.1 mg/kg/week, p=0.0519): no differences

SMILES: CC1=C(/C=C/C(C)=C/C=C/C(C)=C\C(=O)O)C(C)(C)CCC1 [retinoid, isotretinoin]
patients developing adverse effects [12]: 49.7%
